Assay results reported in patent US20260335282A1, “NOVEL 3-ARYLIDENE-2-INDOLINONE DERIVATIVES FOR THERAPEUTIC USE” (ISTANBUL UNIVERSITESI REKTORLUGU, priority 2022, published 2026).
pIC50: −log10 of the molar value.

Key:
[1] = system: CAKI-1 cells; experiment: MTT cytotoxicity, kidney cancer cells CAKI-1; assay type: cell-based, human
How it was run: (§1)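 Read-out is MTT formazan absorbance at 570 nm with 630 nm reference, after 4 h with 5 mg/ml MTT and DMSO solubilisation. Treatment at 0.1, 1, 5 and 10 μM lasted 48 and/or 72 h; viability is relative to DMSO-matched controls, and IC50 values derive from dose-response curves.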

[2] = system: general tyrosine kinase activity in HCT116 colon cancer cells; experiment: General tyrosine kinase activity (ELISA) in HCT-116 cells; assay type: cell-based, human; settings: 72 hours, IC50 concentration
Method: Takara Universal Tyrosine Kinase Assay Kit is used to determine the effects of 11 2-indolinone compounds (Y1, Y2, Y3, Y4, Y5, Y8, […], […], Y21, Y23, 20C, 22C) on general tyrosine kinase activity in cancer cells. Cells are seeded in 6-well plates (4.10^5 cells/well) and the IC50 concentration of each selected molecule is performed to the cells for 48 or 72 hours. Cells in the control group are incubated with medium only. At the end of the incubation period, the cells in each well are washed with PBS and cells are removed from the wells using a cell scraper via 1 ml of the extraction buffer in the kit. The cell lysate is transferred to ependorf tubes and centrifuged at 10.000 g for 10 minutes at +4° C. and the supernatant is used as a sample for activity determination. […] The reaction is finished by adding 100 μl of stop solution to each well and the optical density in each well is measured at 405 nm with a microplate reader (BioTek, USA). The tyrosine kinase activity in each sample is calculated from the standard curve obtained from the absorbance values of the standard solutions with the kit (Chan W Y, Lau P M, Yeung K W, Kong S K. The second generation tyrosine kinase inhibitor dasatinib induced eryptosis in human erythrocytes—An in vitro study. Toxicol Lett. 2018; 295:10-21). […]

[3] = system: A549 cells; experiment: MTT cytotoxicity, lung cancer cells A549; assay type: cell-based, human; settings: no * mark (incubation time not specified)
How it was run: as §1

[4] = system: MDA-MB-231 cells; experiment: MTT cytotoxicity, breast cancer cells MDA-MB-231; assay type: cell-based, human; settings: read-out: IC50, MDA-MB-231 (breast); MTT, no * mark (incubation time not given)
How it was run: as §1

[5] = system: A498 cells; experiment: MTT cytotoxicity, kidney cancer cells A498; assay type: cell-based, human; settings: MTT
How it was run: as §1

[6] = system: MCF-7 cells; experiment: MTT cytotoxicity, breast cancer cells MCF-7; assay type: cell-based, human; settings: MTT, no * mark (incubation time not specified)
How it was run: as §1

[7] = system: MIAPaCa-2 cells; experiment: MTT cytotoxicity, pancreas cancer cells MIAPaCa-2; assay type: cell-based, human; settings: MTT, no * mark (incubation time not specified)
How it was run: (§2)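 Cells were seeded at 5000 per well and treated next day with compound at 0.1, 1, 5 and 10 μM (final) for 48 and/or 72 h, with matched DMSO controls. MTT was added for 4 h and formazan was dissolved in DMSO and read at 570/630 nm. % viability against control gave IC50 from dose-response curves.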

[8] = system: HCT-116 cells; experiment: MTT cytotoxicity, colon cancer cells HCT-116; assay type: cell-based, human; settings: no * mark (incubation time not specified)
How it was run: as §2

[9] = system: HT-29 cells; experiment: MTT cytotoxicity, colon cancer cells HT-29; assay type: cell-based, human; settings: for pIC50: MTT, no * mark (incubation time not specified)
How it was run: as §2

[10] = system: MCF-10F/Beas2b cells; experiment: MTT cytotoxicity, healthy cells MCF-10F/Beas2b; assay type: cell-based, human; settings: for Selectivite Index, MCF-10F/Beas2b (Table 2): MCF-10F/Beas2b vs colon or pancreas cancer cells, cancer line not given
How it was run: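 5000 cells/well; compounds 0.1–10 μM (0.1, 1, 5, 10 μM), 48 and/or 72 h. MTT 5 mg/ml, 4 h; formazan in DMSO; OD 570/630 nm. % viability vs matched-DMSO control; IC50 from dose-response curves; cell-free MTT+compound blanks.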

[11] = system: HUVEC cells; experiment: MTT cytotoxicity, healthy cells HUVEC; assay type: cell-based, human; settings: for Selectivite Index, HUVEC (Table 2): HUVEC vs colon or pancreas cancer cells, cancer line not given; for pIC50: MTT, no * mark (incubation time not specified)
How it was run: as §1

[12] = system: human cancer cells; experiment: MTT cell viability, human cancer cells overall; assay type: cell-based; settings: cell line as discussed at the place
Description: The cytotoxicity, general tyrosine kinase inhibitory effects and cell death (apoptosis/necrosis) assays of 1-benzyl-3-(1H-indol-3-ylmethylidene)-1,3-dihydro-2H-indol-2-one derivatives (Formula 5) of the present invention are studied by the following methods. […] HUVEC (human umbilical vein endothelial cell), MCF-10F (human breast epithelial cell) and Beas2b (human lung bronchial epithelial cell) cell lines have been used as healthy control cells in MTT experiments.
Beas2b (human lung bronchiole epithelial cell) and HEK293 (renal tubule epithelium) cells used as normal cell lines were cultured in RPMI medium, and HUVEC (human umbilical cord endothelial cells) and MCF-10F (human breast epithelial cell) cells are cultured in DMEM medium containing 100 µg/ml penicillin/streptomycin. The cells, which covered 70% of the culture flask, are washed with phosphate buffer and then removed from the surface of the flask by application of trypsin-ethylenediamine tetraacetic acid (Trypsin-EDTA; 0.25%) solution, passaged, counted and seeded on appropriate plates before each experiment. Cells are treated with a total of 45 2-indolinone compounds (5) at concentrations of 0.1, 1, 5 and 10 μM. Stock compounds are prepared in 1 ml dimethylsulfoxide (DMSO) and 4 different dilutions were prepared with medium and performed to the cells. Control group cells are treated with DMSO at a similar concentration to the experimental groups.
MTT (3-(4,5-dimethylthiazol-2-yl)-2,5-diphenyl-2H-tetrazolium bromide) colorimetric assay provides quantitation of viable cells with ongoing mitochondrial activity in culture medium. According to the standard procedure in cell culture conditions, cells are maintained in RPMI-1640 and DMEM culture media containing 10% FBS and 1% penicillin/streptomycin. The trypan blue test is used for cell counts.
The effects of 45 2-indolinone compounds (5) on cell viability in all cancer cell lines are investigated by MTT assay. Cells are seeded in a 96-well flat bottom plate with 5000 cells in each well and 2-indolinone compounds (5) at concentrations of 0.1, 1, 5 and 10 μM are performed to the cells the next day. After 48 and/or 72 hours following treatment with 2-indolinone compounds, 50 μl of the supernatant is slowly discarded (as it was acid medium) and MTT at a concentration of 5 mg/ml is added to each well in a volume of 10 μl. After incubation for 4 hours, the formazan crystals formed in the wells are dissolved by adding 100 μl DMSO and the optical density is read at 570 nm test wavelength and 630 nm reference wavelength. Cell viability is expressed as % cell viability by comparing the absorbance of control and test wells. IC50 value is calculated from the dose-response curves prepared for each compound. In addition, the possible DMSO effect is eliminated by preparing negative control wells compatible with the amount of DMSO contained in the compounds. To understand the reaction of the compounds with MTT, cell-free (MTT+compounds) negative controls are prepared at the concentrations used (Mosmann, 1983). […] The absorbance values obtained are compared to the control and statistically evaluated by unpaired t-test using “Graphpad Prism 5.04” software. “P<0.05” is accepted as significant. When evaluating cytotoxic effects, the present inventors aim for the inventive compounds to be effective in cancer cells and ineffective in healthy cells. […]

[13] = system: BL6-B16 melanoma and E0771 breast cancer cells; settings: Morigi et al. 2019; cited from earlier work
[14] = *: effective 72 hours after incubation
[15] = no * mark (incubation time not specified)

| Compound | pIC50 [1, 14] | tyrosine kinase activity compared to control [2] | pIC50 [3] | pIC50 [4] | pIC50 [5, 14] | pIC50 [6] | pIC50 [7] | pIC50 [8] | pIC50 [9] | Selectivite Index, MCF-10F/Beas2b (Table 2) [10] | pIC50 ([10]; MTT, *: effective 72 hours after incubation) | Selectivite Index, HUVEC (Table 2) [11] | pIC50 [11] | pIC50 [1, 15] | potency/selectivity compared with sunitinib malate [12] | pIC50 [5, 15] | selectivity index ([9]; MCF-10F/Beas2b vs HT-29) | tumor volume [13] |
| --- | --- | --- | --- | --- | --- | --- | --- | --- | --- | --- | --- | --- | --- | --- | --- | --- | --- | --- |
| Cc1cccc(CN2C(=O)/C(=C\c3c[nH]c4ccccc34)c3cc(Cl)ccc32)c1 [20C] | 5.21 | did not cause a significant change | 5.39 | < 5.00 | 6.01 | < 5.00 | 5.86 | 6.57 | 5.94 | 13.63 | 5.43 | 5.63 | 5.82 | – | – | – | – | – |
| O=C1/C(=C\c2c[nH]c3ccccc23)c2ccccc2N1Cc1cccc(F)c1 [51C] | – | – | < 5.00 | < 5.00 | – | < 5.00 | 5.28 | 5.95 | 6.03 | > 10.75 | – | 6.13 | 5.24 | < 5.00 | more potent and selective than Sunitinib malate | 5.21 | > 11 | – |
| O=C1Nc2ccccc2/C1=C/c1nc2sccn2c1-c1ccncc1 [I] | – | – | – | – | – | – | – | – | – | – | – | – | – | – | – | – | – | reduction in tumor volume |
